Assay results from publication PMC10916400, “Effect of the aggregated protein dye YAT2150 on Leishmania parasite viability” (Antimicrobial Agents and Chemotherapy, 2024).

How the values were obtained:
[1] = system: L. infantum amastigotes; experiment: Amastigote growth inhibition assay (parasite rescue and transformation, RAW 264.7 macrophages); format: cell-based, Leishmania infantum; conditions: in vitro
Method: Compound activity on amastigotes was determined following the parasite rescue and transformation assay ([61]). RAW 264.7 macrophages were seeded in 96-well microtiter plates at 10^5 cells/mL of DMEM supplemented with 10% FBS and 1% penicillin-streptomycin (complete DMEM, DMEMc) in a final volume of 200 µL per well. After an overnight incubation (37°C, 5% CO2) to allow cell adherence, the medium was removed and 10^6 L. infantum promastigotes/mL were added (1:10 macrophage:promastigote ratio) in DMEM supplemented with 2% FBS and 1% penicillin-streptomycin (DMEM 2% FBS). After 24 h, parasites not internalized by macrophages were removed by washing (3×, PBS) and dilutions in DMEM 2% FBS of free or liposome-encapsulated compounds were added. After 48 h, the medium was removed, cells were washed three times with PBS, and 40 µL of 0.05% SDS in complete Schneider’s medium was added; after 40 s, 160 additional µL/well of complete Schneider’s medium was added and plates were incubated at 26°C for another 48 h. Then, resazurin sodium salt was incorporated at a final concentration of 0.00125% and plates were incubated for 24 h more in the same conditions. Afterwards, resorufin fluorescence was measured as above.

[2] = system: L. infantum promastigote cultures; experiment: Protein aggregation assay in L. infantum cultures (ThT fluorescence); format: cell-based, Leishmania infantum; conditions: 0.15 and 0.3 µM YAT2150, 90 min and 4 h, promastigote culture extracts
Method: Ten milliliters of L. infantum promastigote cultures in the logarithmic growth phase at a concentration of 10^7 cells/mL in T-25 flasks (SPL Life Sciences, Pochon, Kyonggi-do, South Korea) was either treated with 0.15 µM or 0.3 µM YAT2150 or left untreated. After 90 min and 4 h of incubation, 1 mL of each culture was washed (3×, 1 mL PBS, 600 × g, 3 min) and the parasite-containing pellets were taken up in 100 µL of 4.5 mg/mL NaCl supplemented with 1× cOmplete protease inhibitor cocktail (Roche, Basel, Switzerland) and incubated overnight at 4°C with gentle stirring. After this time, samples were spun down (2,000 × g, 10 s) and the protein in each supernatant was quantified with the Pierce BCA protein assay kit (Thermo Electron Corporation, Waltham, MA, US). In a 96-well flat bottom black plate (Greiner Bio-One), 2 µg of protein from each supernatant was diluted in a final volume of 100 µL PBS in duplicates. Protein aggregation was measured by the addition of 25 µM ThT to each well, and after a 15-min incubation with gentle stirring, ThT fluorescence emission intensity was measured as detailed above.

[3] = system: L. major promastigotes; experiment: Luciferase assay for free intracellular ATP levels; format: cell-based, Leishmania major; conditions: luciferase-expressing L. major promastigotes, DMNPE-luciferin
Method: The process described in reference ([62]) was followed. Briefly, L. major promastigotes (Friendlin strain) were transfected with the pLEXSY-hyg2.1 expression vector (Jena Bioscience, Jena, Germany) containing a cytoplasmic form of firefly luciferase mutated at its C-terminal tripeptide to prevent its import into the glycosome. Promastigotes were grown in Roswell Park Memorial Institute 1640 medium (RPMI) supplemented with 10% FBS, 2 mM L-glutamine, 1,000 U/mL penicillin/streptomycin (Gibco, Billings, MT, US), and 100 µg/mL hygromycin (InvivoGen, San Diego, CA, US) at 26°C. To assess variation in the intracellular concentration of free ATP, parasites were harvested at the late exponential phase of growth. After two washes with Hanks balanced buffer, parasites were resuspended in the same buffer supplemented with 10 mM D-glucose at 2.2 × 10^7 parasites/mL. After the addition of DMNPE-caged D-luciferin (GoldBio, St. Louis, MO, US) at 50 µM final concentration, the parasite suspension was aliquoted (90 µL/well) into a black 96-microwell plate (Nunc A/S, Roskilde, Denmark), and luminescence readout was monitored in a POLARstar Galaxy microplate reader (BMG LABTECH GmbH) with a luminescence setup. Once the luminescence reached a plateau, 10 µL of a YAT2150 solution at 10× fold its final concentration was added (t0) and the luminescence value at this point was considered as 100%. […]

[4] = Human hepatocyte stability assay; format: in vitro ADME; conditions: 37°C
Method: A vial of human hepatocytes (100 donor pool HCP100.H15/Lot: 2010012; XenoTech, Kansas City, KS, US) was removed from the liquid nitrogen tank and immersed into a water bath. When only a small ice crystal remained, the cell suspension was transferred to a tube with the preheated suspension medium (OptiThaw hepatocyte medium, K8000; XenoTech). After a brief centrifugation at 100 × g for 5 min, hepatocytes were gently resuspended with incubation medium (OptiIncubate hepatocyte medium, K8400; XenoTech) and counted, and viability was determined using trypan blue staining. One-micromolar compounds were incubated at 37°C and 5% CO2 in the presence of 0.5 × 10^6 hepatocytes in a 500-µL incubation volume. Aliquots were taken, and reactions were terminated with ACN at each of the six sampling time points (0, 15, 30, 60, 90, and 120 min). The samples were centrifuged, and the remaining compound was determined by UPLC-MS/MS analysis as above. Intrinsic clearance was calculated from the logarithm of the remaining compound at each of the times evaluated.

[5] = system: L. infantum promastigotes; experiment: microbe, parasite or virus in culture; format: cell-based, Leishmania infantum; conditions: L. infantum promastigotes; for IC50: in vitro
Method: L. infantum (MHOM/ES/2016/CATB101) promastigotes were maintained at 26°C in complete Schneider’s medium (Schneider’s insect medium supplemented with 10% FBS, 25 µg/mL gentamycin, 1% penicillin-streptomycin, and 1% sterile human urine, pH 6.7). For growth inhibition assays, promastigotes were used in the logarithmic growth phase, whereas for the infection of macrophages and generation of amastigotes they were used in the stationary phase. Axenic amastigotes were obtained following established protocols ([40], [57][–][59]); briefly, 1 × 10^7 promastigotes/mL in stationary phase were cultured in Schneider’s insect medium supplemented with 20% FBS, 25 µg/mL gentamycin, and 3.9 g/L of 2-(N-morpholino)ethanesulfonic acid, at pH 5.4 and 37°C. After 48 h, the typical rounded morphology of axenic amastigotes and their flagellum shortening could be observed. This culture was used within a week after its preparation.
In 96-well microtiter plates (Nunclon Delta surface; Thermo Fisher Scientific Inc.), serial dilutions (1:2) of the drugs or peptides were performed, either free or loaded in nanoformulations, in 100 µL of complete Schneider’s medium, to which one volume of 2 × 10^6 logarithmic growth-phase L. infantum promastigotes/mL in the same buffer was added. After 48 h, resazurin sodium salt was incorporated at a final concentration of 0.00125% and the plates were incubated at 26°C for another 24 h, when fluorescence from resorufin was measured as described above.

CCN(CC)c1ccc(/C=C/c2cc[n+](CCCCCCCCCC[n+]3ccc(/C=C/c4ccc(N(CC)CC)cc4)c(C)c3)cc2C)cc1 [YAT2150]
IC50 ([1]; L. infantum amastigotes in RAW 264.7 macrophages): 510 ± 110 nM | IC50 ([1]; Leishmania infantum, RAW264.7, L. infantum amastigotes in RAW 264.7 macrophages): ~520 nM | overall aggregation of the parasite's proteins (ThT analysis) [2]: reduced | concentration beyond which a concentration-dependent reduction in luminescence (ATP) was observed [3]: > 2 µM | hepatocyte CLint at 1 µM ([4]; hepatocytes (cryopreserved, 100 donor pool)): 2.5 µL/min/1e6 cells | t1/2, hepatocyte stability ([4]; human hepatocytes): 4.622 h | remaining at 2 h, 1 µM ([4]; human, hepatocytes (cryopreserved, 100 donor pool), after 2 h): 70% | half-life at 1 µM ([4]; human, hepatocytes (cryopreserved, 100 donor pool), read-out: t1/2, hepatocyte stability): 4.62 h | in vitro IC10 [5]: 150 nM | in vitro IC40 [5]: 300 nM | IC50 [5]: ~500 nM | IC50 ([5]; Leishmania infantum): ~520 nM
